According to BindingDB's records for doi:10.1021/acs.jnatprod.9b00663 (University of Utah, 2019):
pIC50: −log10 of the molar value.

Biological target: Low molecular weight phosphotyrosine protein phosphatase (Homo sapiens) (UniProt P24666)
Experiment: Inhibition of LMWPTP (unknown origin) using DiFMUP as substrate incubated for 30 mins followed by substrate addition at pH 6.5 by standard phosphatase assay based fluorescence analysis

Chain of Low molecular weight phosphotyrosine protein phosphatase (Homo sapiens) (P24666 whole entry, looked up): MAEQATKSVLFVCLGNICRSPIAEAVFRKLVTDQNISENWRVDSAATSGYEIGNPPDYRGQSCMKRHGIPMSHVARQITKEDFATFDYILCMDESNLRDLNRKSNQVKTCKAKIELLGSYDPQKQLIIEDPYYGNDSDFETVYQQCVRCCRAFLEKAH

Row | pIC50 | Structure (SMILES)
1 | < 4.00 | CC1(C)Cc2c(O)c(C=O)c3c(c2C1)C(=O)OC(O)C3 (configuration not stated) [Illudalic acid]
2 | < 4.00 | COc1c(C=O)c2c(c3c1CC(C)(C)C3)C(=O)OC(O)C2 (configuration not stated) [3-Hydroxy-6-methoxy-8,8-dimethyl-1-oxo-1,3,4,7,8,9-hexahydro-cyclopenta[h]isochromene-5-carbaldehyde]
